Consider five compounds from paper PMC3156476 (ACS medicinal chemistry letters, 2011).

Assay [1] deals with T1, hA1AR (Homo sapiens, UniProt P30542).
T1 sequence (P30542 1-326): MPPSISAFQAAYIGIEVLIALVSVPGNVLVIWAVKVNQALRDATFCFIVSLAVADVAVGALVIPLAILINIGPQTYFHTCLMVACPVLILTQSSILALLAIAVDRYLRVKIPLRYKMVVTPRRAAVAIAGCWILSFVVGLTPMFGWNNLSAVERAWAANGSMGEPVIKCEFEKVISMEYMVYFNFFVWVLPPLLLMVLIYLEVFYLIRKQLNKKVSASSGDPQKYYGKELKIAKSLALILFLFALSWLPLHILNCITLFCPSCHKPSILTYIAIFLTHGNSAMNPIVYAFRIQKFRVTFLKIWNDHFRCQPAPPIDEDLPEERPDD
Type of assay: cell-based. The settings on record: compared to standard full agonist CPA / NECA.

In assay [2] the target is T1, hA1AR. The settings on record: read-out: Affinity Ki, A1; CHO cells expressing hA1AR; ref [6], [7], and [12]; cited from earlier work.
Assay [3] concerns the target T2, hA3AR (Homo sapiens, UniProt P0DMS8).
T2 sequence (P0DMS8 1-318): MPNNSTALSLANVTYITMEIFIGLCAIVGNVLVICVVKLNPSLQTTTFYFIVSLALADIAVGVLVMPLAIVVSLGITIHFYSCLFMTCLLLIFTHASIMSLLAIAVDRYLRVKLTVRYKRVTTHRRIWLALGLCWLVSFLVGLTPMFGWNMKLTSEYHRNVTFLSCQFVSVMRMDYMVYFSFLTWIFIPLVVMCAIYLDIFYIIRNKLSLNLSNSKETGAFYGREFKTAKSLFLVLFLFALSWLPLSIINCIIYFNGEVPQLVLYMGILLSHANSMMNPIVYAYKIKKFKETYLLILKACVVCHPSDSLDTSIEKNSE
The following applies: read-out: Affinity Ki, A3; CHO cells expressing hA3AR; ref [6], [7], and [12]; cited from earlier work.

Regarding `O[C@@H]1[C@H](O)[C@@H]2C[C@@H]2[C@H]1n1cnc2c(NC(C3CC3)C3CC3)nc(Cl)nc21` [Compound 21], the “Agonist character at A1AR in cyclic AMP assay” value in assay [1] is “full agonism”.

Turning to `CNC(=O)[C@@]12C[C@@H]1[C@@H](n1cnc3c(NCc4cccc(Cl)c4)nc(Cl)nc31)[C@H](O)[C@@H]2O` [Compound 1, (1′S,2′R,3′S,4′R,5′S)-4′-{2-chloro-6-[(3-chlorophenylmethyl)amino]purin-9-yl}-1-(methylaminocarbonyl)bicyclo[3.1.0]hexane-2,3-diol], in assay [2], the inhibition constant Ki was 260 ± 60 nM.

Regarding `CNC(=O)[C@@]12C[C@@H]1[C@@H](n1cnc3c(NC4CCCC4)nc(Cl)nc31)[C@H](O)[C@@H]2O` [Compound 2, (1′S,2′R,3′S,4′R,5′S)-4-(2-chloro-6-(cyclopentylamino)-9H-purin-9-yl)-2,3-dihydroxy-N-methylbicyclo[3.1.0]hexane-1-carboxamide], the inhibitory constant (Ki) in assay [2] was 18.3 ± 6.3 nM; in assay [3], 13.1 ± 5.1 nM.

Consider `O[C@@H]1[C@H](O)[C@H]2C[C@@H]2[C@H]1n1cnc2c(NCc3cccc(I)c3)nc(Cl)nc21` [Compound 5, (1′S,2′R,3′S,4′R,5′S)-4′-[2-chloro-6-(3-iodobenzylamino)-purine]-2′,3′-O-dihydroxybicyclo-[3.1.0]hexane], for which the inhibition constant Ki in assay [3] was 1.44 ± 0.6 nM.

Regarding `CCNC(=O)[C@H]1O[C@@H](n2cnc3c(N)ncnc32)[C@H](O)[C@@H]1O` [NECA, 5′-N-ethylcarboxamidoadenosine], the “Agonist character at A1AR in cyclic AMP assay” value in assay [1] is reported as “full agonist”.

As usually defined, the Ki is the dissociation constant of the complex between target and ligand, obtained from inhibition or displacement.
